Laboratory results: ChEMBL document CHEMBL3244203, “Absolute configuration of glycerol derivatives. 4. Synthesis and pharmacological activity of chiral 2-alkylaminomethylbenzodioxans, competitive alpha-adrenergic antagonists” (J Med Chem, 1977)

Assays:
[1] = Competitive antagonist activity at alpha-adrenergic receptor in New Zealand rabbit aorta assessed as inhibition of methoxamine-induced contraction incubated for 1 hr; format: tissue-based, Oryctolagus cuniculus
[2] = target: Adrenergic receptor alpha; assay: Displacement of [3H]dihydroazapetine from alpha-adrenoreceptor in rat vas deferens

| pKd [2] | Structure (SMILES) | pA2 [1] |
| --- | --- | --- |
| – | c1ccc2c(c1)OCC(CN1CCN(CC3COc4ccccc4O3)CC1)O2 (stereo not given) | 7.53 |
| 6.25 | c1ccc2c(c1)OC[C@@H](CN1CCN(C[C@@H]3COc4ccccc4O3)CC1)O2 | 6.38 |
| 6.21 | CCN(CC)C[C@H]1COc2ccccc2O1 | 5.6 |
| – | c1ccc2c(c1)OC[C@H](CN1CCCCC1)O2 | 7.12 |
| – | CCN(CC)C[C@@H]1COc2ccccc2O1 | 5.26 |
| – | c1ccc2c(c1)OC[C@@H](CN1CCCCC1)O2 | 5.86 |
| 6.85 | c1ccc2c(c1)OC[C@H](CN1CCN(C[C@H]3COc4ccccc4O3)CC1)O2 | 7.66 |
